Measurements taken from patent US12415797B2, “Heterocyclic compound as CDK-HDAC double-channel inhibitor” (Hangzhou Innogate Pharma Co., Ltd., priority 2018, dated 2025).
Where two headings read alike, the source gives them in different places.

Assays:
Type in all cases: biochemical
CDK4/CycD3 = CDK4/CycD3 (Homo sapiens (Human), UniProt P11802); assay: CDK4/CycD3 kinase Mobility Shift Assay; conditions: CDK4/CycD3 10 nM, ATP Km 221 μM, 180 min, 28° C.
Experimental: (§1) In vitro enzymatic activity of the CDK isoforms CDK2/CycA2, CDK4/CycD3 and CDK6/cycD3 were measured using Mobility Shift Assay that monitors phosphorylation ratio of FAM labelled peptide (Peptide 18 for CDK2/CycA2, Peptide 8 for CDK4/CycD3). CDK2/CycA2 and CDK6/CycD3 were assayed under buffer conditions in the presence of 50 mM HEPES (pH 7.5), 10 mM MgCl2, 0.0015% Brij-35 and 2 mM dithiothreitol; CDK4/CycD3 with buffer condition of 20 mM HEPES (pH 7.5), 10 mM MgCl2, 0.01% Triton X-100 and 2 mM dithiothreitol. Prepare compounds to 50× of the final desired highest inhibitor concentration by 100% DMSO and serial dilution in 3-fold for total of 10 concentrations. For each isoform, dosage of enzyme and substrate are CDK2/CycA2 12 nM, ATP Km 39 μM; CDK4/CycD3 10 nM, ATP Km […]; CDK6/cycD3 15 nM, ATP Km 800 μM. After assay for 60 min, 180 min, 60 min respectively at 28° C., reactions were terminated with stop solution (50 mM EDTA, 0.015% Brij-35, 0.2% Coating Reagent #3 and 100 mM HEPES (pH 7.5)). Collect conversion on Caliper EZ Reader. IC50 values were calculated by fitting the dose-response curves with Xlfit excel add-in version 4.3.1.

CDK6/cycD3 = CDK6/cycD3 (Homo sapiens (Human), UniProt Q00534); assay: CDK6/cycD3 kinase Mobility Shift Assay; conditions: CDK6/cycD3 15 nM, ATP Km 800 μM, 60 min, 28° C.
Chain of CDK6/cycD3 (Q00534 whole entry, species assumed): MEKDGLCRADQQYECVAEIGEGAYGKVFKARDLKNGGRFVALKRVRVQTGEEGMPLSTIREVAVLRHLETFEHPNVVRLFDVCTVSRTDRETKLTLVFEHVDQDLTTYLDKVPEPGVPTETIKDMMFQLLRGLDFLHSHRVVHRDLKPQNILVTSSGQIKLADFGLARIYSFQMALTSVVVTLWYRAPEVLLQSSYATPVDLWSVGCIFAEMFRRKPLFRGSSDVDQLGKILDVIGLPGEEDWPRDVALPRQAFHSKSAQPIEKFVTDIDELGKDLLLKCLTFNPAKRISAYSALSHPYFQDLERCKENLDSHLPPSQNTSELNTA
Chain of CDK6/cycD3 (P30281 whole entry partner, species assumed): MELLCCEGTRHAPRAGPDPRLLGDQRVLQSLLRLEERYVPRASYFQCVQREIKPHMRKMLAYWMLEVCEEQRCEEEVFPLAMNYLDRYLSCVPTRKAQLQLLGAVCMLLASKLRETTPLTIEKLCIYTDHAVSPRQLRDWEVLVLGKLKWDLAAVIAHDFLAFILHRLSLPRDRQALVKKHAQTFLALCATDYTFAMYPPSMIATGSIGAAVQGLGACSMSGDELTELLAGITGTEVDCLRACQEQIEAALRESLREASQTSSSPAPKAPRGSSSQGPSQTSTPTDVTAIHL
Experimental: as §1

CDK2/CycA2 = CDK2/CycA2 (Homo sapiens (Human), UniProt P24941); assay: CDK2/CycA2 kinase Mobility Shift Assay; conditions: CDK2/CycA2 12 nM, ATP Km 39 μM, 60 min, 28° C.
Experimental: as §1

HDAC-1 = HDAC-1 (Homo sapiens (Human), UniProt Q13547); assay: HDAC-1 fluorogenic deacetylase assay (Ac-peptide-AMC); conditions: recombinant, full-length protein, Ac-peptide-AMC substrate; read-out: HDAC1 (IC50)
Chain of HDAC-1 (Q13547 whole entry): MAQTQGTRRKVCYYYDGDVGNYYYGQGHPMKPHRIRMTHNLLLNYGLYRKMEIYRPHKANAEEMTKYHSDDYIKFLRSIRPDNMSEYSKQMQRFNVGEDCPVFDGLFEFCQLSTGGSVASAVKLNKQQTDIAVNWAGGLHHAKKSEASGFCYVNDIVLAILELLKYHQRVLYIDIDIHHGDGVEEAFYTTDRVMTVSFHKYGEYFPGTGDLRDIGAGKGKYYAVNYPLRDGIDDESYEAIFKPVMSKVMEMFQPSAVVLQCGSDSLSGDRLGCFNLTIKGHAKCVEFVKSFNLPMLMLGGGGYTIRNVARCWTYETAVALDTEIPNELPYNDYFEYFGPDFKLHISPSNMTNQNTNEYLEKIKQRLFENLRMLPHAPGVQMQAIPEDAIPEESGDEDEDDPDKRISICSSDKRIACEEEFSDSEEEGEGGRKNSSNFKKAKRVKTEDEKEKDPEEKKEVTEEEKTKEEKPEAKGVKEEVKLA
Experimental: (§2) The inhibitory effect of compounds on HDAC-1 and HDAC-6 function was determined in vitro using an optimized homogenous assay performed in 384-well plate format. In this assay, the recombinant, full-length HDAC-1, HDAC-2 or HDAC-6 protein (BPS Biosciences) was incubated with Ac-peptide-AMC with concentrations in the Km plot. Reactions were performed in Tris-based assay buffer and were followed for fluorogenic release of 7-amino-4-methylcoumarin from substrate upon deacetylase and trypsin enzymatic activity. Fluorescence measurements were obtained using a multilabel plate reader (Synergy MX with excitation at 355 nm and emission at 460 nm). Data were analyzed on a plate-by-plate basis for the linear range of fluorescence over time. Fit the data in GraphPad Prism V5.0 software to obtain IC50 values using equation (Y=Bottom+(Top-Bottom)/(1+10^((Log IC50−X)*Hill Slope), Y is % inhibition and X is compound concentration).

HDAC-6 = HDAC-6 (Homo sapiens (Human), UniProt Q9UBN7); assay: HDAC-6 fluorogenic deacetylase assay (Ac-peptide-AMC); conditions: read-out: HDAC6 (IC5)
Chain of HDAC-6 (Q9UBN7 whole entry): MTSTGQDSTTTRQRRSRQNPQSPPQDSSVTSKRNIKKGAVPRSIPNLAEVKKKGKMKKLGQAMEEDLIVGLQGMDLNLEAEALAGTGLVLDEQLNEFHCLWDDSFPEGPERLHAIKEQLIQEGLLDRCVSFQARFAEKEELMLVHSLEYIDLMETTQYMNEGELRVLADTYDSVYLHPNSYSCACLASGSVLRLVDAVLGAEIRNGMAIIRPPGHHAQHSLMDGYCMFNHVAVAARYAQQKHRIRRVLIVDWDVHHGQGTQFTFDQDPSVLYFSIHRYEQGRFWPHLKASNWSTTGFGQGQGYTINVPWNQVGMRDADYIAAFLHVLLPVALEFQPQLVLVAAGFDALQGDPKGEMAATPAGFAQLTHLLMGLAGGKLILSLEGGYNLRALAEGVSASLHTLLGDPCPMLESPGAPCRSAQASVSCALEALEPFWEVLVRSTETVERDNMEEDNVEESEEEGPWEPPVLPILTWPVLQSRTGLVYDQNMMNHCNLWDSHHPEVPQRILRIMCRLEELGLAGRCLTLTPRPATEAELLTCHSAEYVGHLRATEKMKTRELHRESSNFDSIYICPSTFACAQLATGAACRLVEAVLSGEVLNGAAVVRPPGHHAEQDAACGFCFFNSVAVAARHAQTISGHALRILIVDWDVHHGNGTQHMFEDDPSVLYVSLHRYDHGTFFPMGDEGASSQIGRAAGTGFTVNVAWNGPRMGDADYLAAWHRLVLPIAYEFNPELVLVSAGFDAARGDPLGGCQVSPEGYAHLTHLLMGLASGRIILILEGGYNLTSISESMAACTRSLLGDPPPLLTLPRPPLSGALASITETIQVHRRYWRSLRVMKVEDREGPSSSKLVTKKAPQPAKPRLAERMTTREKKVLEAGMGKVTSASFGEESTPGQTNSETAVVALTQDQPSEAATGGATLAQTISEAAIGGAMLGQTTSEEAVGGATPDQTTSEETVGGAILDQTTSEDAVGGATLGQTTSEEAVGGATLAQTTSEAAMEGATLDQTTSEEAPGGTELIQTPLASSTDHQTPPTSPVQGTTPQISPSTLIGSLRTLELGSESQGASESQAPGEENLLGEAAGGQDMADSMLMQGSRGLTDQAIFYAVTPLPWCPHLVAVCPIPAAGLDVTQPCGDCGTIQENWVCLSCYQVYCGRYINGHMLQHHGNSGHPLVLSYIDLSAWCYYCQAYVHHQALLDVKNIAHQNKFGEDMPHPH
Experimental: as §2

[1] = recombinant, full-length protein, Ac-peptide-AMC substrate

Chain of CDK4/CycD3 (P11802 whole entry, species assumed, canonical isoform): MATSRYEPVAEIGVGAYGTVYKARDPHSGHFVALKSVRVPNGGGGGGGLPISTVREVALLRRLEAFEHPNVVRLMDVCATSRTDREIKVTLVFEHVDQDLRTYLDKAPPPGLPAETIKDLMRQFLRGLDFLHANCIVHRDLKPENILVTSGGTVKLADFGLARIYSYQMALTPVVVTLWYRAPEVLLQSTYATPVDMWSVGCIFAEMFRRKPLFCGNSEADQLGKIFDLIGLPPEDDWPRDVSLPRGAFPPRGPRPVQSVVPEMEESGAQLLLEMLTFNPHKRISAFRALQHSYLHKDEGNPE
Chain of CDK4/CycD3 (P30281 whole entry partner, species assumed, canonical isoform): as the sequence (P30281 whole entry partner, species assumed) above

SMILES	IC50 (CDK4/CycD3)	IC50 (CDK6/cycD3)	IC50 (CDK2/CycA2)	IC50 (HDAC-1)	IC50 (HDAC-6; [1])	IC50 (HDAC-6)
Cc1nc2c(F)cc(-c3nc(Nc4cc(C(=O)NO)ccn4)ncc3F)cc2n1C(C)C [Compound 12, 2-((5-fluoro-4-(4-fluoro-1-isopropyl-2-methyl-1H-benzo[d]imidazol-6-yl)pyrimidin-2-yl)amino)-N-hydroxyisonicotinamide]	10 to 100 nM	≥ 1000 nM	10 to 100 nM	100 to 500 nM	10 to 100 nM	–
Cc1nc2c(F)cc(-c3nc(Nc4ccc(N(C)Cc5ccc(/C=C/C(=O)NO)cc5)cn4)ncc3F)cc2n1C(C)C [Compound 7, (E)-3-(4-(((6-((5-fluoro-4-(4-fluoro-1-isopropyl-2-methyl-1H-benzo[d]imidazol-6-yl)pyrimidin-2-yl)amino)pyridin-3-yl)(methyl)amino)methyl)phenyl)-N-hydroxyacrylamide]	10 to 100 nM	500 to 1000 nM	100 to 500 nM	100 to 500 nM	10 to 100 nM	–
Cc1nc2c(F)cc(-c3nc(Nc4ccc(N(C)Cc5ccc(C(=O)NO)cc5)cn4)ncc3F)cc2n1C(C)C [Compound 6, 4-(((6-((5-fluoro-4-(4-fluoro-1-isopropyl-2-methyl-1H-benzo[d]imidazol-6-yl)pyrimidin-2-yl)amino)pyridin-3-yl)(methyl)amino)methyl)-N-hydroxybenzamide]	< 10 nM	10 to 100 nM	< 10 nM	100 to 500 nM	10 to 100 nM	–
Cc1nc2c(F)cc(-c3nc(Nc4ccc(CN5CCN(CCCCCCC(=O)NO)CC5)cn4)ncc3F)cc2n1C(C)C [Compound 1, 7-(4-((6-((5-fluoro-4-(4-fluoro-1-isopropyl-2-methyl-1H-benzo[d]imidazol-6-yl)pyrimidin-2-yl)amino)pyridin-3-yl)methyl)piperazin-1-yl)-N-hydroxyheptanamide]	< 10 nM	10 to 100 nM	10 to 100 nM	100 to 500 nM	10 to 100 nM	–
Cc1nc2c(F)cc(-c3nc(Nc4ccc(N5CCN(Cc6ccc(C(=O)NO)cc6)CC5)cn4)ncc3F)cc2n1C(C)C [Compound 8, 4-((4-(6-((5-fluoro-4-(4-fluoro-1-isopropyl-2-methyl-1H-benzo[d]imidazol-6-yl)pyrimidin-2-yl)amino)pyridin-3-yl)piperazin-1-yl)methyl)-N-hydroxybenzamide]	< 10 nM	10 to 100 nM	10 to 100 nM	10 to 100 nM	–	< 10 nM
Cc1nc2c(F)cc(-c3nc(Nc4ccc(C(=O)NO)nc4)ncc3F)cc2n1C(C)C [Compound 11, 5-((5-fluoro-4-(4-fluoro-1-isopropyl-2-methyl-1H-benzo[d]imidazol-6-yl)pyrimidin-2-yl)amino)-N-hydroxypicolinamide]	< 10 nM	10 to 100 nM	< 10 nM	≥ 1000 nM	≥ 1000 nM	–
Cc1nc2c(F)cc(-c3nc(Nc4ccc(N5CCC(C(=O)NO)CC5)cn4)ncc3F)cc2n1C(C)C [Compound 15, 1-(6-((5-fluoro-4-(4-fluoro-1-isopropyl-2-methyl-1H-benzo[d]imidazol-6-yl)pyrimidin-2-yl)amino)pyridin-3-yl)-N-hydroxypiperidine-4-carboxamide]	< 10 nM	10 to 100 nM	10 to 100 nM	≥ 1000 nM	100 to 500 nM	–
Cc1nc2c(F)cc(-c3nc(Nc4ccc(N5CCN(CCCCC(=O)NO)CC5)cn4)ncc3F)cc2n1C(C)C [Compound 13, 5-(4-(6-((5-fluoro-4-(4-fluoro-1-isopropyl-2-methyl-1H-benzo[d]imidazol-6-yl)pyrimidin-2-yl)amino)pyridin-3-yl)piperazin-1-yl)-N-hydroxypentanamide]	< 10 nM	< 10 nM	10 to 100 nM	≥ 1000 nM	10 to 100 nM	–
Cc1nc2c(F)cc(-c3nc(Nc4ccc(/C=C/C(=O)NO)cn4)ncc3F)cc2n1C(C)C [Compound 5, (E)-3-(6-((5-fluoro-4-(4-fluoro-1-isopropyl-2-methyl-1H-benzo[d]imidazol-6-yl)pyrimidin-2-yl)amino)pyridin-3-yl)-N-hydroxyacrylamide]	< 10 nM	100 to 500 nM	10 to 100 nM	≥ 1000 nM	10 to 100 nM	–

Continued, values first:

IC50 (CDK4/CycD3)	IC50 (CDK6/cycD3)	IC50 (CDK2/CycA2)	IC50 (HDAC-1)	IC50 (HDAC-6; [1])	IC50 (HDAC-6)	SMILES
< 10 nM	10 to 100 nM	10 to 100 nM	≥ 1000 nM	500 to 1000 nM	–	Cc1nc2c(F)cc(-c3nc(Nc4ccc(N5CCN(CCC(=O)NO)CC5)cn4)ncc3F)cc2n1C(C)C [Compound 14, 3-(4-(6-((5-fluoro-4-(4-fluoro-1-isopropyl-2-methyl-1H-benzo[d]imidazol-6-yl)pyrimidin-2-yl)amino)pyridin-3-yl)piperazin-1-yl)-N-hydroxypropanamide]
< 10 nM	< 10 nM	10 to 100 nM	100 to 500 nM	–	< 10 nM	Cc1nc2c(F)cc(-c3nc(Nc4ccc(N5CCN(C(=O)CCCCCCC(=O)NO)CC5)cn4)ncc3F)cc2n1C(C)C [Compound 10, 8-(4-(6-((5-fluoro-4-(4-fluoro-1-isopropyl-2-methyl-1H-benzo[d]imidazol-6-yl)pyrimidin-2-yl)amino)pyridin-3-yl)piperazin-1-yl)-N-hydroxy-8-oxooctanamide]
< 10 nM	10 to 100 nM	< 10 nM	≥ 1000 nM	100 to 500 nM	–	Cc1nc2c(F)cc(-c3nc(Nc4ccc(-c5ccc(C(=O)NO)cn5)cn4)ncc3F)cc2n1C(C)C [Compound 16, 6′-((5-fluoro-4-(4-fluoro-1-isopropyl-2-methyl-1H-benzo[d]imidazol-6-yl)pyrimidin-2-yl)amino)-N-hydroxy-[2,3′-bipyridine]-5-carboxamide]
< 10 nM	100 to 500 nM	100 to 500 nM	100 to 500 nM	–	< 10 nM	Cc1nc2c(F)cc(-c3nc(Nc4ccc(C(=O)NO)cn4)ncc3F)cc2n1C(C)C [Compound 4, 6-((5-fluoro-4-(4-fluoro-1-isopropyl-2-methyl-1H-benzo[d]imidazol-6-yl)pyrimidin-2-yl)amino)-N-hydroxynicotinamide]
< 10 nM	10 to 100 nM	10 to 100 nM	10 to 100 nM	10 to 100 nM	–	Cc1nc2c(F)cc(-c3nc(Nc4ccc(N(C)CCCCCCC(=O)NO)cn4)ncc3F)cc2n1C(C)C [Compound 3, 7-((6-((5-fluoro-4-(4-fluoro-1-isopropyl-2-methyl-1H-benzo[d]imidazol-6-yl)pyrimidin-2-yl)amino)pyridin-3-yl)(methyl)amino)-N-hydroxyheptanamide]
< 10 nM	–	–	–	–	–	Cc1nc2c(F)cc(-c3nc(Nc4ccc(C#CC(=O)NO)cn4)ncc3F)cc2n1C(C)C [Compound 17, 3-(6-((5-fluoro-4-(4-fluoro-1-isopropyl-2-methyl-1H-benzo[d]imidazol-6-yl)pyrimidin-2-yl)amino)pyridin-3-yl)-N-hydroxypropiolamide]
< 10 nM	10 to 100 nM	10 to 100 nM	≥ 1000 nM	–	< 10 nM	Cc1nc2c(F)cc(-c3nc(Nc4ccc(N5CCN(CCCCCCC(=O)NO)CC5)cn4)ncc3F)cc2n1C(C)C [Compound 9, 7-(4-(6-((5-fluoro-4-(4-fluoro-1-isopropyl-2-methyl-1H-benzo[d]imidazol-6-yl)pyrimidin-2-yl)amino)pyridin-3-yl)piperazin-1-yl)-N-hydroxyheptanamide]
< 10 nM	10 to 100 nM	100 to 500 nM	< 10 nM	10 to 100 nM	–	Cc1nc2c(F)cc(-c3nc(Nc4ccc(N(C)CCN(C)c5ncc(C(=O)NO)cn5)cn4)ncc3F)cc2n1C(C)C [Compound 2, 2-((2-((6-((5-fluoro-4-(4-fluoro-1-isopropyl-2-methyl-1H-benzo[d]imidazol-6-yl)pyrimidin-2-yl)amino)pyridin-3-yl)(methyl)amino)ethyl)(methyl)amino)-N-hydroxypyrimidine-5-carboxamide]
